We go through three compounds from PubChem BioAssay (NCI).

Test systems include DU-145 prostate; RXF 393 renal; K-562 leukemia; OVCAR-5 ovarian; HOP-92 NSCLC; OVCAR-8 ovarian; NCI-H522 lung; MDA-MB-435; CAKI-1 renal; HCT-116 colon.
Holding throughout (test): NCI tumour cell line growth inhibition, 48 h

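Cells were grown in 96-well plates and exposed to each compound for 48 hours at five concentrations; endpoints were interpolated linearly between bracketing concentrations, or set to the highest concentration if not reached. At the GI50, growth is halved. TGI: total growth inhibition.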

`CC(C)c1ccc(C(=O)Nc2sc3c(c2C#N)CCC(=O)C3)cc1`: the GI50 with DU-145 prostate is 4.26 µM; in the assay with RXF 393 renal, 0.271 µM; in the assay on K-562 leukemia, 0.203 µM; in the assay on OVCAR-5 ovarian, 0.552 µM; in the assay with HOP-92 NSCLC, 0.607 µM; in the assay on OVCAR-8 ovarian, 0.431 µM. Moreover, the GI50 is 0.248 µM with NCI-H522 lung, 1.02 µM with MDA-MB-435, 0.343 µM in the assay on CAKI-1 renal and 0.18 µM in the assay with HCT-116 colon. The TGI was greater than 100 µM in the assay on DU-145 prostate; 1.14 µM with RXF 393 renal; 5.11 µM in the assay with OVCAR-5 ovarian; 2.4 µM with HOP-92 NSCLC; greater than 100 µM in the assay with OVCAR-8 ovarian; 2.16 µM in the assay on NCI-H522 lung. The TGI was 5.72 µM in the assay on MDA-MB-435, 1.95 µM with CAKI-1 renal and greater than 24.3 µM in the assay on HCT-116 colon.

As to `CCN1C(=S)N(CC)C2C1NC(=S)N2/N=C/C=C/c1ccccc1` (centres undefined), the GI50 is 2.42 µM in the assay on DU-145 prostate; 1.57 µM in the assay on RXF 393 renal; 0.382 µM with K-562 leukemia; 3.92 µM in the assay with OVCAR-5 ovarian; 4 µM with HOP-92 NSCLC; 4.47 µM with OVCAR-8 ovarian. The GI50 with NCI-H522 lung is 0.739 µM; with MDA-MB-435, 0.272 µM; in the assay on CAKI-1 renal, 0.776 µM; in the assay with HCT-116 colon, 1.3 µM. Further, the TGI in the assay on DU-145 prostate stood at 12.2 µM; with RXF 393 renal, 6.58 µM; with K-562 leukemia, 14.1 µM; with OVCAR-5 ovarian, 16.9 µM; with HOP-92 NSCLC, 20.9 µM; in the assay on OVCAR-8 ovarian, 23.5 µM. Further, the TGI is 3.7 µM in the assay with NCI-H522 lung, 0.856 µM in the assay with MDA-MB-435, 18.6 µM in the assay on CAKI-1 renal and 12.4 µM in the assay with HCT-116 colon.

For the compound `CC/C=C\C[C@H](O)C/C=C1/C(=O)C=C[C@@H]1C/C=C\CCCC(=O)N(C)C`, the GI50 in the assay with DU-145 prostate was 3.27 µM; with RXF 393 renal, 1.73 µM; in the assay with K-562 leukemia it was 1.02 µM; in the assay with OVCAR-5 ovarian it was 2.46 µM; with HOP-92 NSCLC it was 2.56 µM; in the assay with OVCAR-8 ovarian, 1.54 µM. The GI50 with NCI-H522 lung was 1.33 µM; with MDA-MB-435, 0.862 µM; in the assay on CAKI-1 renal, 1.22 µM; in the assay on HCT-116 colon it was 0.44 µM. The TGI was 15.4 µM with DU-145 prostate; 3.26 µM with RXF 393 renal; greater than 100 µM in the assay with K-562 leukemia; 5.51 µM in the assay with OVCAR-5 ovarian; 7.12 µM with HOP-92 NSCLC; 11.4 µM in the assay on OVCAR-8 ovarian. Also, the TGI worked out at 2.98 µM with NCI-H522 lung, 2.37 µM in the assay with MDA-MB-435, 2.67 µM in the assay on CAKI-1 renal and 1.68 µM in the assay with HCT-116 colon.
